# Test results as given in PubChem BioAssay (NCI).
#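 Assay format: 96-well plates, 48-hour exposure. Abbreviation: GI50, concentration required for 50% inhibition of growth. Definition used: TGI = concentration required for complete inhibition of growth.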
# How the values were obtained:
# Assay in all cases: growth of human tumour cells (NCI), 48 h
# SF-295 CNS = tested on: SF-295 CNS
# COLO 205 colon = tested on: COLO 205 colon
# SK-OV-3 ovarian = tested on: SK-OV-3 ovarian
# T-47D breast = tested on: T-47D breast
# UO-31 renal = tested on: UO-31 renal
# A549 NSCLC = tested on: A549 NSCLC
# HOP-62 NSCLC = tested on: HOP-62 NSCLC
# HL-60(TB) leukemia = tested on: HL-60(TB) leukemia
# SF-539 CNS = tested on: SF-539 CNS
# ACHN renal = tested on: ACHN renal
# DU-145 prostate = tested on: DU-145 prostate
# HOP-92 NSCLC = tested on: HOP-92 NSCLC
# OVCAR-3 ovarian = tested on: OVCAR-3 ovarian
# SW-620 colon = tested on: SW-620 colon
# MCF7 breast = tested on: MCF7 breast
# HCC-2998 colon = tested on: HCC-2998 colon
# SF-268 CNS = tested on: SF-268 CNS
# RXF 393 renal = tested on: RXF 393 renal
# OVCAR-8 ovarian = tested on: OVCAR-8 ovarian
# IGROV1 ovarian = tested on: IGROV1 ovarian
# UACC-62 melanoma = tested on: UACC-62 melanoma
# EKVX NSCLC = tested on: EKVX NSCLC
# SK-MEL-2 melanoma = tested on: SK-MEL-2 melanoma
# HCT-116 colon = tested on: HCT-116 colon
# LOX IMVI melanoma = tested on: LOX IMVI melanoma
# CCRF-CEM leukemia = tested on: CCRF-CEM leukemia
# HT29 colon = tested on: HT29 colon
# U251 CNS = tested on: U251 CNS
# OVCAR-4 ovarian = tested on: OVCAR-4 ovarian
# RPMI-8226 leukemia = tested on: RPMI-8226 leukemia
# NCI-H522 lung = tested on: NCI-H522 lung
# NCI-H23 lung = tested on: NCI-H23 lung
# M14 melanoma = tested on: M14 melanoma
# SK-MEL-28 melanoma = tested on: SK-MEL-28 melanoma
# SK-MEL-5 melanoma = tested on: SK-MEL-5 melanoma
# SNB-19 CNS = tested on: SNB-19 CNS
# MOLT-4 leukemia = tested on: MOLT-4 leukemia
# BT-549 breast = tested on: BT-549 breast
# KM12 colon = tested on: KM12 colon
# TK-10 renal = tested on: TK-10 renal
# HCT-15 colon = tested on: HCT-15 colon
# NCI-H226 lung = tested on: NCI-H226 lung
# SNB-75 CNS = tested on: SNB-75 CNS
# NCI-H460 lung = tested on: NCI-H460 lung
# PC-3 prostate = tested on: PC-3 prostate
# CAKI-1 renal = tested on: CAKI-1 renal
# 786-0 renal = tested on: 786-0 renal
# OVCAR-5 ovarian = tested on: OVCAR-5 ovarian
# MDA-MB-231 breast = tested on: MDA-MB-231 breast
# SN12C renal = tested on: SN12C renal
# K-562 leukemia = tested on: K-562 leukemia
# NCI/ADR-RES ovarian = tested on: NCI/ADR-RES ovarian
# UACC-257 melanoma = tested on: UACC-257 melanoma
# HS 578T breast = tested on: HS 578T breast
# A498 renal = tested on: A498 renal
# MDA-MB-435 = tested on: MDA-MB-435
# MALME-3M melanoma = tested on: MALME-3M melanoma
# SR leukemia = tested on: SR leukemia
compound,measurement,setting,value
COc1cc(C2c3cc4c(cc3OC(NC3CCCCC3)C2C)OCO4)cc(OC)c1OC (stereo not drawn),TGI,SF-295 CNS,577 nM
same,TGI,COLO 205 colon,825 nM
same,TGI,SK-OV-3 ovarian,15300 nM
same,TGI,T-47D breast,66700 nM
same,TGI,UO-31 renal,32200 nM
same,TGI,A549 NSCLC,> 85300 nM
same,TGI,HOP-62 NSCLC,> 64300 nM
same,TGI,HL-60(TB) leukemia,675 nM
same,TGI,SF-539 CNS,1400 nM
same,TGI,ACHN renal,40200 nM
same,TGI,DU-145 prostate,> 100000 nM
same,TGI,HOP-92 NSCLC,22100 nM
same,TGI,OVCAR-3 ovarian,929 nM
same,TGI,SW-620 colon,> 55700 nM
same,TGI,MCF7 breast,> 100000 nM
same,TGI,HCC-2998 colon,4220 nM
same,TGI,SF-268 CNS,28600 nM
same,TGI,RXF 393 renal,820 nM
same,TGI,OVCAR-8 ovarian,15600 nM
same,TGI,IGROV1 ovarian,> 54000 nM
same,TGI,UACC-62 melanoma,43200 nM
same,TGI,EKVX NSCLC,> 100000 nM
same,TGI,SK-MEL-2 melanoma,47800 nM
same,TGI,HCT-116 colon,15500 nM
same,TGI,LOX IMVI melanoma,17600 nM
same,TGI,CCRF-CEM leukemia,> 100000 nM
same,TGI,HT29 colon,25600 nM
same,TGI,U251 CNS,23900 nM
same,TGI,OVCAR-4 ovarian,> 28300 nM
same,TGI,RPMI-8226 leukemia,41800 nM
same,TGI,NCI-H522 lung,2280 nM
same,TGI,NCI-H23 lung,11000 nM
same,TGI,M14 melanoma,36600 nM
same,TGI,SK-MEL-28 melanoma,> 100000 nM
same,TGI,SK-MEL-5 melanoma,1930 nM
same,TGI,SNB-19 CNS,> 100000 nM
same,TGI,MOLT-4 leukemia,> 39000 nM
same,TGI,BT-549 breast,26400 nM
same,TGI,KM12 colon,7890 nM
same,TGI,TK-10 renal,> 68800 nM
same,TGI,HCT-15 colon,> 45400 nM
same,TGI,NCI-H226 lung,15800 nM
same,TGI,SNB-75 CNS,623 nM
same,TGI,NCI-H460 lung,> 100000 nM
same,TGI,PC-3 prostate,> 28800 nM
same,TGI,CAKI-1 renal,2750 nM
same,TGI,786-0 renal,20100 nM
same,TGI,OVCAR-5 ovarian,> 100000 nM
same,TGI,MDA-MB-231 breast,2260 nM
same,TGI,SN12C renal,> 41900 nM
same,TGI,K-562 leukemia,> 21500 nM
same,TGI,NCI/ADR-RES ovarian,3860 nM
same,TGI,UACC-257 melanoma,> 100000 nM
same,TGI,HS 578T breast,58300 nM
same,TGI,A498 renal,25000 nM
COc1cc2nc(-c3cnc(N(C)C)nc3)nc(NC3CCN(Cc4ccccc4)CC3)c2cc1OC,GI50,SF-295 CNS,1540 nM
same,TGI,SF-295 CNS,2970 nM
same,GI50,COLO 205 colon,637 nM
same,TGI,COLO 205 colon,2090 nM
same,GI50,SK-OV-3 ovarian,1700 nM
same,TGI,SK-OV-3 ovarian,3080 nM
same,GI50,MDA-MB-435,1380 nM
same,TGI,MDA-MB-435,2810 nM
same,GI50,T-47D breast,1810 nM
same,TGI,T-47D breast,4140 nM
same,GI50,UO-31 renal,1490 nM
same,TGI,UO-31 renal,3050 nM
same,GI50,A549 NSCLC,351 nM
same,TGI,A549 NSCLC,1790 nM
same,GI50,HOP-62 NSCLC,1690 nM
same,TGI,HOP-62 NSCLC,3480 nM
same,GI50,HL-60(TB) leukemia,1510 nM
same,TGI,HL-60(TB) leukemia,3750 nM
same,GI50,SF-539 CNS,1720 nM
same,TGI,SF-539 CNS,3250 nM
same,GI50,ACHN renal,927 nM
same,TGI,ACHN renal,2170 nM
same,GI50,DU-145 prostate,1570 nM
same,TGI,DU-145 prostate,3050 nM
same,GI50,HOP-92 NSCLC,1030 nM
same,TGI,HOP-92 NSCLC,2460 nM
same,GI50,OVCAR-3 ovarian,1690 nM
same,TGI,OVCAR-3 ovarian,3270 nM
same,GI50,SW-620 colon,442 nM
same,TGI,SW-620 colon,2000 nM
same,GI50,HCC-2998 colon,1790 nM
same,TGI,HCC-2998 colon,3250 nM
same,GI50,SF-268 CNS,1730 nM
same,TGI,SF-268 CNS,3720 nM
same,GI50,RXF 393 renal,1630 nM
same,TGI,RXF 393 renal,3490 nM
same,GI50,OVCAR-8 ovarian,1680 nM
same,TGI,OVCAR-8 ovarian,3970 nM
same,GI50,IGROV1 ovarian,1730 nM
same,TGI,IGROV1 ovarian,3430 nM
same,GI50,UACC-62 melanoma,1730 nM
same,TGI,UACC-62 melanoma,3290 nM
same,GI50,EKVX NSCLC,1750 nM
same,TGI,EKVX NSCLC,3660 nM
same,GI50,SK-MEL-2 melanoma,1800 nM
same,TGI,SK-MEL-2 melanoma,3450 nM
same,GI50,HCT-116 colon,316 nM
same,TGI,HCT-116 colon,1320 nM
same,GI50,LOX IMVI melanoma,1520 nM
same,TGI,LOX IMVI melanoma,3200 nM
same,GI50,CCRF-CEM leukemia,707 nM
same,TGI,CCRF-CEM leukemia,3600 nM
same,GI50,HT29 colon,1080 nM
same,TGI,HT29 colon,2540 nM
same,GI50,MALME-3M melanoma,1660 nM
same,TGI,MALME-3M melanoma,3420 nM
same,GI50,U251 CNS,222 nM
same,TGI,U251 CNS,573 nM
same,GI50,RPMI-8226 leukemia,1220 nM
same,TGI,RPMI-8226 leukemia,3670 nM
same,GI50,NCI-H23 lung,1690 nM
same,TGI,NCI-H23 lung,4110 nM
same,GI50,M14 melanoma,1500 nM
same,TGI,M14 melanoma,3060 nM
same,GI50,SK-MEL-28 melanoma,1830 nM
same,TGI,SK-MEL-28 melanoma,3580 nM
same,GI50,SK-MEL-5 melanoma,1580 nM
same,TGI,SK-MEL-5 melanoma,2950 nM
same,GI50,SNB-19 CNS,1200 nM
same,TGI,SNB-19 CNS,3100 nM
same,GI50,MOLT-4 leukemia,2280 nM
same,TGI,MOLT-4 leukemia,6360 nM
same,GI50,BT-549 breast,1710 nM
same,TGI,BT-549 breast,3430 nM
same,GI50,KM12 colon,1720 nM
same,TGI,KM12 colon,3530 nM
same,GI50,TK-10 renal,1630 nM
same,TGI,TK-10 renal,3080 nM
same,GI50,HCT-15 colon,1010 nM
same,TGI,HCT-15 colon,2390 nM
same,GI50,NCI-H226 lung,1730 nM
same,TGI,NCI-H226 lung,3920 nM
same,GI50,SNB-75 CNS,1430 nM
same,TGI,SNB-75 CNS,2860 nM
same,GI50,NCI-H460 lung,412 nM
same,TGI,NCI-H460 lung,1700 nM
same,GI50,PC-3 prostate,1460 nM
same,TGI,PC-3 prostate,3090 nM
same,GI50,CAKI-1 renal,1440 nM
same,TGI,CAKI-1 renal,2810 nM
same,GI50,786-0 renal,1800 nM
same,TGI,786-0 renal,3810 nM
same,GI50,OVCAR-5 ovarian,1780 nM
same,TGI,OVCAR-5 ovarian,3460 nM
same,GI50,MDA-MB-231 breast,1570 nM
same,TGI,MDA-MB-231 breast,3400 nM
same,GI50,SN12C renal,1770 nM
same,TGI,SN12C renal,3490 nM
same,GI50,K-562 leukemia,369 nM
same,TGI,K-562 leukemia,1950 nM
same,GI50,UACC-257 melanoma,1790 nM
same,TGI,UACC-257 melanoma,3660 nM
same,GI50,SR leukemia,273 nM
same,TGI,SR leukemia,938 nM
same,GI50,HS 578T breast,1710 nM
same,TGI,HS 578T breast,3990 nM
same,GI50,A498 renal,1570 nM
same,TGI,A498 renal,2940 nM
